Laboratory results taken from article PMC12363935, “Unc-51 Like Kinase 3 (ULK3) is essential for autophagy and cell survival in multiple myeloma” (Research Square, 2025).
Several values for one entry are separate records, joined by “and”; a condition that tells them apart may be missing. Equal entries are not always repeated.

Legend:
[1] = test system: autophagy proteins in U266 MM cells; experiment: Immunoblot densitometry of autophagy proteins; type: cell-based, Human; details: U266, 6h, MA9-060 1μM, JQ1 10μM, CQ 1μM
Protocol: Figure 3. Anti-myeloma activity of the MA9–060 autophagy inhibitor. A. Chemical structure of the autophagy inhibitor MA9–060. […] Chloroquine (CQ) (1μM) served as a positive control for autophagy inhibition. C. […] Hoechst 33342 dye appears here as the nuclear blue staining (Multiple comparisons ANOVA, p <0.0001).
157 5872S). Protein concentration was quantified by Thermo Scientific™ Pierce™ BCA™ Protein
30 μg protein was loaded to 10%-15% gel and ran at
159 100V for 2 hours. Later protein was transferred to PVDF membrane and blocked with 5% skimmed
160 milk in TBST (10 mM Tris/HCl pH8.0, 0.12M NaCl, 0.1% Tween 20) containing 5% BSA [8] for
163 at 4°C overnight. Membranes were washed 3 times,10 minutes with TBS. Then incubated with
164 appropriate secondary antibodies at 1:1000 ratio in skimmed milk or 2% BSA. The membranes
165 were washed again 3 times for 10 minutes with TBST. ECL reagents were added to the membrane
166 and blot was developed by LICOR Imaging Studio.
167 All immunoblotting assays were performed at least in three replicates and representative
168 images are shown. Commercially available antibodies and their dilutions are listed in
169 Supplementary Table 5. Immunoblotting images were acquired and quantified using LICOR
170 Image Studio Quant software. […]

BRD4-1 = target: T1, BRD4-1 (Homo sapiens, UniProt O60885); experiment: Bromodomain profiling assay, AlphaScreen binding, H4/4Ac ligand; details: NA = no activity
T1 construct: evaluated against Bromodomain 1 by Reaction Biology Corporation; purchased Reaction Biology Corporation
Protocol: 331 Bromodomain profiling assay
333 evaluated against Bromodomain 1 by Reaction Biology Corporation.
334 The compounds were subjected to testing using a 10-dose IC50 singlet approach, involving a 3-
335 fold serial dilution starting at 10 μM, specifically against BRD4-1. Additionally, as a benchmark,
340 Detection was carried out through the AlphaScreen Binding assay with excitation/emission
341 wavelengths set at 680/520-620 nm, respectively, using the Enspire platform.
342 The data acquisition included raw data, represented as signal-background*, % Binding (relative to
343 DMSO controls), and curve fits.

primary CD138+ MM cells = experiment: EMMA ex vivo platform, live cell imaging, 96 hours, collagen matrix with bone marrow stroma and patient plasma; type: cell-based; design: scale not given here
Text: For clinical robustness, we tested the activity of MA9 in MM patient samples using our ex vivo mathematical myeloma advisor (EMMA) platform (Supplementary Table 1). […]
For these assays, we used a novel EMMA platform developed at Moffitt. Further details are included in the supplemental Materials. […]
400 Ex vivo drug sensitivity characterization
401 An ex vivo assay was used to quantify the chemosensitivity of primary MM cells. Fresh BM
402 aspirate cells were enriched for CD138+ expression using Miltenyi (Bergisch Gladbach, Germany)
MM cells (CD138+) were seeded in Corning
404 Cell BIND 384 well plates (Corning, NY) with collagen I and previously established human-
407 inactivated), penicillin/streptomycin, and patient-derived plasma (10%, freshly obtained from
409 added using a robotic plate handler so that every drug/combination was tested at 5 (fixed
410 concentration ratio, for combinations) concentrations (1:3 serial dilution) in two replicates.
411 Negative controls (supplemented growth media with and without the vehicle control dimethyl
412 sulfoxide [DMSO]) were included, as well as positive controls for each drug (cell line MM1.S at
413 highest drug concentration). Plates were placed in a motorized stage microscope (EVOS Auto FL,
414 Life Technologies, Carlsbad, CA) equipped with an incubator and maintained at 5% CO2 and 37
415 °C. […]
Digital image analysis computes the percent
418 viability of MM cells for each time point and experimental condition (drug and concentration)

Cc1cnc(Nc2ccc(C3CCN(C)CC3)c(F)c2)nc1Nc1ccc(Cl)c(NS(=O)(=O)C(C)(C)C)c1 [MA9060]
LC3II densitometry ([1]; CTRL 0.34): 0.10 | LC3I densitometry ([1]; CTRL 3.01): 1.78 | ULK1 densitometry ([1]; CTRL 7.21): 2.44 | ULK3 densitometry ([1]; CTRL 15.17): 3.33 | IC50 (BRD4-1): 3.8 nM | AUC (primary CD138+ MM cells; Pt648, LRMM): 42.835 | AUC (primary CD138+ MM cells; Pt653, LRMM): 41.560 | AUC (primary CD138+ MM cells; Pt655, LRMM, listed as MA9): 26.03 | AUC (primary CD138+ MM cells; Pt663, LRMM, listed as MA9): 47.02 | AUC (primary CD138+ MM cells; Pt665, LRMM, listed as MA9): 70.14 | AUC (primary CD138+ MM cells; Pt666, LRMM, listed as MA9): 49.23 | AUC (primary CD138+ MM cells; Pt669, ERMM, listed as MA9): 29.51 | AUC (primary CD138+ MM cells; Pt672, NDMM, listed as MA9): 49.16 | AUC (primary CD138+ MM cells; Pt677, NDMM): 43.301 and 45.593 | AUC (primary CD138+ MM cells; Pt680, ERMM): 42.605 | AUC (primary CD138+ MM cells; Pt680, ERMM, listed as MA9): 35.24 | AUC (primary CD138+ MM cells; Pt685, ERMM, listed as MA9): 100 | AUC (primary CD138+ MM cells; Pt689, NDMM): 97.182 | AUC (primary CD138+ MM cells; Pt691, LRMM, listed as MA9): 68.66 | AUC (primary CD138+ MM cells; Pt693, SMOL, listed as MA9): 70.97 | AUC (primary CD138+ MM cells; Pt694, NDMM, listed as MA9): 47.51 | AUC (primary CD138+ MM cells; Pt695, LRMM, listed as MA9): 70.64 | AUC (primary CD138+ MM cells; Pt697, NDMM, listed as MA9): 65.92 | AUC (primary CD138+ MM cells; Pt700, NDMM): 71.574 | AUC (primary CD138+ MM cells; Pt700, NDMM, listed as MA9): 71.39 | AUC (primary CD138+ MM cells; Pt707, LRMM, listed as MA9): 73.56 | AUC (primary CD138+ MM cells; Pt718, SMOL, listed as MA9): 76.17 | AUC (primary CD138+ MM cells; Pt737, MGUS): 42.854 | AUC (primary CD138+ MM cells; Pt738, NDMM, listed as MA9): 65.97 | AUC (primary CD138+ MM cells; Pt740, SMOL): 62.223 | AUC (primary CD138+ MM cells; Pt745, NDMM): 55.970 | AUC (primary CD138+ MM cells; Pt825, NDMM): 100 | AUC (primary CD138+ MM cells; Pt852, NDMM): 41.956 | AUC (primary CD138+ MM cells; Pt853, ERMM): 49.879 and 54.514 | AUC (primary CD138+ MM cells; Pt856, NDMM, listed as MA9): 72.33 | AUC (primary CD138+ MM cells; Pt865, LRMM, listed as MA9): 59.28 | AUC (primary CD138+ MM cells; Pt866, NDMM, listed as MA9): 37.56 | AUC (primary CD138+ MM cells; Pt875, NDMM, listed as MA9): 21.1 | AUC (primary CD138+ MM cells; Pt885, NDMM): 28.777 | AUC (primary CD138+ MM cells; Pt885, NDMM, listed as MA9): 27.78 | AUC (primary CD138+ MM cells; Pt888, LRMM, listed as MA9): 59.98 | AUC (primary CD138+ MM cells; Pt893, LRMM): 96.916 | AUC (primary CD138+ MM cells; Pt899, SMOL): 28.290 | AUC (primary CD138+ MM cells; Pt906, NDMM, listed as MA9): 43.69 | AUC (primary CD138+ MM cells; Pt909, LRMM): 46.043 | AUC (primary CD138+ MM cells; Pt912, PCL): 41.302 | AUC (primary CD138+ MM cells; Pt917, LRMM): 73.927 | AUC (primary CD138+ MM cells; Pt920, LRMM): 44.399 | AUC (primary CD138+ MM cells; Pt923, LRMM, listed as MA9): 28.34 | AUC (primary CD138+ MM cells; Pt932, LRMM): 45.003 | AUC (primary CD138+ MM cells; Pt933, LRMM, listed as MA9): 57.89 | AUC (primary CD138+ MM cells; Pt935, NDMM, listed as MA9): 25.47 | AUC (primary CD138+ MM cells; Pt936, LRMM): 83.700 | AUC (primary CD138+ MM cells; Pt937, NDMM): 48.139 and 40.693 | AUC (primary CD138+ MM cells; Pt940, LRMM): 72.923 | AUC (primary CD138+ MM cells; Pt945, LRMM): 39.091 | AUC (primary CD138+ MM cells; Pt948, LRMM, listed as MA9): 24.69 | AUC (primary CD138+ MM cells; Pt951, ERMM, listed as MA9): 62.38 | AUC (primary CD138+ MM cells; Pt956, NDMM): 67.208 and 74.021 | AUC (primary CD138+ MM cells; Pt957, LRMM): 80.043 | AUC (primary CD138+ MM cells; Pt961, NDMM): 66.118 and 49.072
